Results taken from patent publication US9284350B2, “IAP BIR domain binding compounds” (Pharmascience Inc., priority 2010, dated 2016).

Legend:
XIAP = biological target: T1, XIAP (Homo sapiens, UniProt P98170); assay: Fluorescence polarization-based competition assay, XIAP; assay type: binding; conditions: FP assay, ki derived from IC50
T1 construct: fused on or other part: GST tag at the N-terminus (pGEX4T vectors)
Procedure: (§1) Binding of compounds of Formula 1 to target BIR domains was measured using a fluorescence-polarization (FP) assay. Fluorescence-polarization was evaluated using a GENios microplate reader (TECAN) Pro instrument with the excitation filter set at 485 nm and the emission filter set at 535 nm. The final amount of protein used in the assay corresponds to the amount of protein necessary to obtain 80% of the maximum FP value in a P1 or P2 fluorescent (FITC) probe saturation experiment. The compounds potency (IC50) and selectivity, was assessed in the presence of the amount of target protein established, fluorescent probe, and a 10 point serial dilution in assay buffer (50 mM Hepes, pH 7.5, 250 mcg/mL γ-globulin, 2 mM DTT, 1% DMSO) of the selected compounds.
(§2) Assays were carried out in duplicate using untreated black 96-well plates (Corning #3915) and a total volume of 100 microliters, containing 25 microliters of fluorescent probe at a final concentration of 2 nM in assay buffer, 25 microliters of diluted compound, 25 microliters of BIR protein into assay buffer and 25 microliters of assay buffer. Buffer only (blank) or probe only in buffer (G-factor) were used as controls for calibration. The plate was incubated at room temperature in the dark for one hour and FP values in millipolarization units (mP) were recorded using Genios Pro FP reader.
(§3) The measured FP values (mP) were then plotted against compound concentration, and IC50 values were calculated based on a sigmoidal dose-response (variable-slope) curve fit using GraphPad Prism version 4.02 for Windows, GraphPad Software, San Diego Calif. USA and/or CambridgeSoft BioAssay Enterprise Version 10.1. The IC50 value is the concentration of test compound at which 50% of the tracer was displaced. ki values were derived from the calculated IC50 values as described above and according to the equation described in Nikolovska-Coleska, Z. (2004) Anal Biochem 332, 261-273. The results are presented in Table 2, wherein A=less than 25 nM; B=less than 250 nM; C=less than 1000 nM; and D=greater than 1000 nM.

c-IAP1 = biological target: T2, c-IAP1 (Homo sapiens, UniProt Q13490); assay: Fluorescence polarization-based competition assay, c-IAP1; assay type: binding; conditions: FP assay, ki derived from IC50
T2 construct: GST (N); made in house; host or cells: E. coli DH5α
T2 sequence (Q13490 251-363): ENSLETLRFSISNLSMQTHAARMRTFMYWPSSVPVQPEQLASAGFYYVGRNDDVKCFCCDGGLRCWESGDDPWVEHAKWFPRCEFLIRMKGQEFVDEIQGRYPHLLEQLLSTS
Procedure: as §1, §2, §3

cIAP2 = biological target: T3, cIAP2 (Homo sapiens, UniProt Q13489); assay: Fluorescence polarization-based competition assay, cIAP2; assay type: binding; conditions: FP assay, ki derived from IC50
T3 construct: GST (N); made in house; host or cells: E. coli DH5α
T3 sequence (Q13489 236-349): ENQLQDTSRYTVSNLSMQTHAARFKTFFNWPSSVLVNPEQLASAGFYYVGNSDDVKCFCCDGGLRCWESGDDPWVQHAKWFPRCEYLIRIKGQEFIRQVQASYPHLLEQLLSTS
Procedure: as §1, §2, §3

[1] = test system: Colorectal carcinoma HCT116 cells; assay: Cell death assay (MTT) in combination with HGS ETR1; assay type: cell-based; conditions: with HGS ETR1 30 ng/ml, 72 hours, read-out: HCT116+ mapatubimap EC50
Procedure: Colorectal carcinoma HCT116 cells were cultured as monolayers in 96 well plates at a density of 2000 cells per well in McCoy's 5a medium (HyClone) supplemented with 2.2 g/L sodium bicarbonate, 10% FBS (HyClone) and 1% penicillin/streptomycin (HyClone). 24 hours later, triplicate wells were treated with HGS ETR1 (30 ng/ml) in combination with compound. Cells were incubated in the presence of compound and HGS agonistic Trail receptor antibody, ETR1 (Mapatumamab, 30 ng/ml) for 72 hours. Metabolic viability of remaining cells was assessed by MTT (thiazolyl blue tetrazolium bromide, Sigma) assay.
EC50 values (50% cell survival in the presence of compound as compared to untreated controls) were calculated from survival curves using BioAssay software (CambridgeSoft) and GraphPad Prism (Graph Pad Software Inc.). The results are provided in Table 3, below, wherein A=less than 50 nM; B=less than 250 nM; C=less than 1000 nM; and D=greater than 1000 nM.

T1 sequence (P98170 246-497 limits assumed): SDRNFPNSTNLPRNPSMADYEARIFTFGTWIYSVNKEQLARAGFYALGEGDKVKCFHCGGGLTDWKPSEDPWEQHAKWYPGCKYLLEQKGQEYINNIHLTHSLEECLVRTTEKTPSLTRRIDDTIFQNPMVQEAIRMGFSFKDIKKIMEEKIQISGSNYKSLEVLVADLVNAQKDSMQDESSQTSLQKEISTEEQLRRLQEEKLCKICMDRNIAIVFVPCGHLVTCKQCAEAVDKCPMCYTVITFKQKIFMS

Row | SMILES | Ki (XIAP) | Ki (c-IAP1) | Ki (cIAP2) | EC50 [1]
1 | CN[C@@H](C)C(=O)N[C@H](C(=O)N1CCC[C@H]1CN(CCc1ccc(F)cc1)C(=O)c1cn2c(n1)CCC2)C(C)(C)C [Compound 67] | < 250 nM | < 25 nM | < 25 nM | < 50 nM
2 | CN[C@@H](C)C(=O)N[C@H](C(=O)N1CCC[C@H]1CN(CCc1ccc(F)cc1)C(=O)c1cc2ccccn2c1)C(C)(C)C [Compound 68] | < 250 nM | < 25 nM | < 25 nM | < 250 nM
3 | CN[C@@H](C)C(=O)N[C@H](C(=O)N1C[C@@H](NC(=O)c2ccccc2)C[C@H]1CN(CCc1ccc(F)cc1)C(=O)c1cn2ccccc2n1)C(C)(C)C [Compound 69] | < 250 nM | < 25 nM | < 25 nM | < 250 nM
4 | CN[C@@H](C)C(=O)N[C@H](C(=O)N1C[C@@H](NC(C)=O)C[C@H]1CN(CCc1ccc(F)cc1)C(=O)c1cn2ccccc2n1)C(C)(C)C [Compound 70] | < 1000 nM | < 25 nM | < 250 nM | < 1000 nM
5 | CN[C@@H](C)C(=O)N[C@H](C(=O)N1CCC[C@H]1CN(CCc1ccc(F)cc1)C(=O)c1cn(-c2ccc(F)cc2)cn1)[C@@H](C)OC [Compound 72] | < 250 nM | < 25 nM | < 25 nM | < 50 nM
6 | CN[C@@H](C)C(=O)N[C@H](C(=O)N1CCC[C@H]1CN(CCc1ccc(F)cc1)C(=O)c1cn(C)cn1)[C@@H](C)OC [Compound 73] | < 250 nM | < 25 nM | < 25 nM | < 250 nM
7 | CN[C@@H](C)C(=O)N[C@H](C(=O)N1CCC[C@H]1CN(CCc1ccc(F)cc1)C(=O)c1cn2cc(F)cnc2n1)[C@@H](C)OC [Compound 74] | < 250 nM | < 25 nM | < 25 nM | < 50 nM
8 | CN[C@@H](C)C(=O)N[C@H](C(=O)N1CCC[C@H]1CN(CCc1ccc(F)cc1)C(=O)c1cn2c(n1)CCC2)[C@@H](C)OC [Compound 75] | < 250 nM | < 25 nM | < 25 nM | < 50 nM
9 | CCO[C@H](C)[C@H](NC(=O)[C@H](C)NC)C(=O)N1CCC[C@H]1CN(CCc1ccc(F)cc1)C(=O)c1cn(C)cn1 [Compound 76] | < 250 nM | < 25 nM | < 25 nM | < 50 nM
10 | CN[C@@H](C)C(=O)N[C@H](C(=O)N1CCC[C@H]1CN(CCc1ccc(F)cc1)C(=O)c1cn(-c2ccccc2)nn1)[C@@H](C)OC [Compound 77] | < 250 nM | < 25 nM | < 25 nM | < 50 nM
11 | CCO[C@H](C)[C@H](NC(=O)[C@H](C)NC)C(=O)N1CCC[C@H]1CN(CCc1ccc(F)cc1)C(=O)c1cn2ccccc2n1 [Compound 78] | < 250 nM | < 25 nM | < 25 nM | < 50 nM
12 | CCO[C@H](C)[C@H](NC(=O)[C@H](C)NC)C(=O)N1CCC[C@H]1CN(CCc1ccc(F)cc1)C(=O)c1cn(-c2ccc(F)cc2)cn1 [Compound 79] | < 250 nM | < 25 nM | < 25 nM | < 50 nM
13 | CCO[C@H](C)[C@H](NC(=O)[C@H](C)NC)C(=O)N1CCC[C@H]1CN(CCc1ccc(F)cc1)C(=O)c1cn2cc(F)cnc2n1 [Compound 80] | < 250 nM | < 25 nM | < 25 nM | < 50 nM
14 | CCO[C@H](C)[C@H](NC(=O)[C@H](C)NC)C(=O)N1CCC[C@H]1CN(CCc1ccc(F)cc1)C(=O)c1cn2c(n1)CCC2 [Compound 81] | < 250 nM | < 25 nM | < 25 nM | < 50 nM
15 | CN[C@@H](C)C(=O)N[C@H](C(=O)N1C[C@@H](Oc2ccc(F)cc2)C[C@H]1CN(CCc1ccc(F)cc1)C(=O)c1cn(C)cn1)C(C)(C)C [Compound 82] | < 25 nM | < 25 nM | < 25 nM | < 50 nM
16 | CN[C@@H](C)C(=O)N[C@H](C(=O)N1C[C@@H](Oc2ccc(F)cc2)C[C@H]1CN(CCc1ccc(F)cc1)C(=O)c1cn2c(n1)CCC2)C(C)(C)C [Compound 83] | < 25 nM | < 25 nM | < 25 nM | < 50 nM
17 | CN[C@@H](C)C(=O)N[C@H](C(=O)N1C[C@@H](Oc2ccc(F)cc2)C[C@H]1CN(CCc1ccc(F)cc1)C(=O)c1cn2ccccc2n1)C(C)(C)C [Compound 84] | < 25 nM | < 25 nM | < 25 nM | < 50 nM
18 | CN[C@@H](C)C(=O)N[C@H](C(=O)N1CCC[C@H]1CN(CCc1ccc(F)cc1)C(=O)c1nccn1C)[C@@H](C)OC [Compound 85] | < 1000 nM | < 25 nM | < 25 nM | < 50 nM
19 | CN[C@@H](C)C(=O)N[C@H](C(=O)N1C[C@@H](NC(=O)c2ccccc2)C[C@H]1CN(CCc1ccc(F)cc1)C(=O)c1cn(C)cn1)C(C)(C)C [Compound 86] | < 250 nM | < 25 nM | < 25 nM | < 50 nM
20 | CN[C@@H](C)C(=O)N[C@H](C(=O)N1C[C@@H](NC(=O)c2ccccc2)C[C@H]1CN(CCc1ccc(F)cc1)C(=O)c1cn(-c2ccc(F)cc2)cn1)C(C)(C)C [Compound 87] | < 250 nM | < 25 nM | < 25 nM | < 250 nM
21 | CN[C@@H](C)C(=O)N[C@H](C(=O)N1CCC[C@H]1CN(CCc1ccc(F)cc1)C(=O)c1cc(-c2ccccc2)[nH]n1)C(C)(C)C [Compound 88] | < 250 nM | < 25 nM | < 25 nM | < 250 nM
22 | CN[C@@H](C)C(=O)N[C@H](C(=O)N1C[C@@H](NC(=O)c2ccccc2)C[C@H]1CN(CCc1ccc(F)cc1)C(=O)c1cn2c(n1)CCC2)C(C)(C)C [Compound 89] | < 250 nM | < 25 nM | < 25 nM | < 50 nM
23 | CN[C@@H](C)C(=O)N[C@H](C(=O)N1CCC[C@H]1CN(CCc1ccc(F)cc1)C(=O)c1cnn(-c2ccccc2)c1)C(C)(C)C [Compound 90] | < 250 nM | < 25 nM | < 25 nM | < 250 nM
24 | CN[C@@H](C)C(=O)N[C@H](C(=O)N1CCC[C@H]1CN(CCc1ccc(F)cc1)C(=O)c1cn(C2CCCC2)cn1)C(C)(C)C [Compound 91] | < 250 nM | < 25 nM | < 25 nM | < 50 nM
25 | CN[C@@H](C)C(=O)N[C@H](C(=O)N1CCC[C@H]1CN(CCc1ccc(F)cc1)C(=O)c1cncn1C)C(C)(C)C [Compound 92] | < 1000 nM | < 25 nM | < 250 nM | < 250 nM
26 | CN[C@@H](C)C(=O)N[C@H](C(=O)N1CCC[C@H]1CN(CCc1ccc(F)cc1)C(=O)c1cn(C2CCCCC2)cn1)C(C)(C)C [Compound 93] | < 250 nM | < 25 nM | < 25 nM | < 50 nM
27 | CN[C@@H](C)C(=O)N[C@H](C(=O)N1CCC[C@H]1CN(CCc1ccc(F)cc1)C(=O)c1cn(C(C)C)cn1)C(C)(C)C [Compound 94] | < 250 nM | < 25 nM | < 25 nM | < 50 nM
28 | CN[C@@H](C)C(=O)N[C@H](C(=O)N1CCC[C@H]1CN(CCc1ccc(F)cc1)C(=O)c1cn(C2CCOCC2)cn1)C(C)(C)C [Compound 95] | < 250 nM | < 25 nM | < 25 nM | < 50 nM
29 | CN[C@@H](C)C(=O)N[C@H](C(=O)N1C[C@@H](Oc2ccc(OC)cc2)C[C@H]1CN(CCc1ccc(F)cc1)C(=O)c1cn(C)cn1)C(C)(C)C [Compound 96] | < 250 nM | < 25 nM | < 25 nM | < 50 nM
